Patent publication US20250179121A1, “CYCLOSPORINE COMPOSITIONS AND METHODS OF USE” (Bacainn Biotherapeutics, Ltd., priority 2018, published 2025)
“And” between values parts separate entries of the source, which are not always exact repeats. Equal entries are not always repeated.

What was measured:
[1] = Amount excreted in feces after oral dosing in rats; type: in vivo, Sprague-Dawley rats; settings: rat; for Conc. in feces: BT070 10 mg/kg oral, individual animals A-C, corrected for the 1:9 dilution factor
[2] = Rat PK, plasma concentrations after oral dosing; type: in vivo, Sprague-Dawley rats; settings: for plasma concentration of BT070 (breakdown product of BT051): individual animals A-E
Experimental: [Worded in the source for another target; this target is reported under the same test.] Blood samples were collected at the indicated time points and processed to plasma. Plasma concentrations of BT090 were assayed by LC-MS/MS. Feces were collected over t=0 to 4 h, 4-8 h, and 8-24 h, homogenized in buffer and assayed for BT090 concentrations by LC-MS/MS. Total feces weight collected for each time interval was recorded. BT090 was formulated in 1% NMP, 0.3% Tween-80 in 0.5% methylcellulose.

neutrophil migration = assay: PMN transmigration assay (T84 monolayer infected with Salmonella typhimurium, MPO readout); type: cell-based, human
Experimental: PMN transmigration assay. T84 colorectal cancer cells were grown to confluence on the bottom side of 12 well polycarbonate membrane inserts of a 24 well Transwell® plate. The confluent growth of these epithelial cells results in physiologically-relevant apical (luminal) and basolateral surfaces in the transwells. […] The monolayer was then infected on the apical surface with Salmonella typhimurium for 2 hours to induce hepoxilin A3 (HXA3) efflux through the MRP2 membrane protein and into the apical chamber. […] Freshly isolated and prepared human neutrophils were then added to the basolateral side and allowed to transmigrate through the monolayer for 2 hours. The number of neutrophils migrated to the apical chamber (due to the HXA3 gradient) was then assayed by determination of myeloperoxidase activity (a neutrophil biomarker). Inhibition of transmigration is indicated by lower MPO activity in the apical chamber.

[3] = BT070 10 mg/kg oral, rat, individual animals A-C, 10 mg/kg

plasma concentration, Mean ([2]; BT070 10 mg/kg oral, rat, 0.5 h, mean): 3588.6 ng/mL
plasma concentration, Mean ([2]; BT070 10 mg/kg oral, rat, 1 h, mean): 2301.5 ng/mL
plasma concentration, Mean ([2]; BT070 10 mg/kg oral, rat, 2 h, mean): 1522.8 ng/mL
plasma concentration, Mean ([2]; BT070 10 mg/kg oral, rat, 4 h, mean): 829.6 ng/mL
plasma concentration, Mean ([2]; BT070 10 mg/kg oral, rat, 6 h, mean): 488.3 ng/mL
plasma concentration, Mean ([2]; BT070 10 mg/kg oral, rat, 8 h, mean): 293.9 ng/mL
plasma concentration, Mean ([2]; BT070 10 mg/kg oral, rat, 24 h, mean): 101.2 ng/mL
AUCinf, Mean ([2]; BT070 10 mg/kg oral, rat, mean): 14735.7 ng·h/mL
AUClast, Mean ([2]; BT070 10 mg/kg oral, rat, mean): 12202.9 ng·h/mL
plasma concentration of BT070 (breakdown product of BT051), Mean ([2]; after BT051 10 mg/kg oral, rat, 0.5 h, mean): 3.3 ng/mL
Cmax of BT070 (breakdown product of BT051) ([2]; after BT051 10 mg/kg oral, rat, individual animals): 3.3 ng/mL
Cmax of BT070 (breakdown product of BT051), Mean ([2]; after BT051 10 mg/kg oral, rat, mean): 3.3 ng/mL
oral bioavailability of the breakdown product of BT051 ([2]; following oral administration of BT051 in rats at 10 mg/kg): not orally bioavailable
IC50 (neutrophil migration; read-out: compound concentration at which 50% inhibition of neutrophil migration was observed, FIG. 1 dose-response): 31.2 nM
SMILES: CC[C@@H]1NC(=O)[C@H]([C@H](O)[C@H](C)CCCCCC(=O)O)N(C)C(=O)[C@H](C(C)C)N(C)C(=O)[C@H](CC(C)C)N(C)C(=O)[C@H](CC(C)C)N(C)C(=O)[C@@H](C)NC(=O)[C@H](C)NC(=O)[C@H](CC(C)C)N(C)C(=O)[C@H](C(C)C)NC(=O)[C@H](CC(C)C)N(C)C(=O)CN(C)C1=O [BT070]
Conc. in feces ([1]; 0-4 h): NQ (Not quantifiable. No peak or below limit of quantification (LOQ = 1000 ng/mL))
Conc. in feces ([1]; 4-8 h): NQ (Not quantifiable. No peak or below limit of quantification (LOQ = 1000 ng/mL))
Total amount of BT070 (breakdown product of BT051) excreted in feces ([1]; after BT051 10 mg/kg oral, 0-48 h, individual animals A-D): 36.9 µg and 33.4 µg and 41.4 µg and 38.5 µg
Amount of BT070 (breakdown product of BT051) excreted in feces ([1]; after BT051 10 mg/kg oral, 8-24 h, individual animals A-D): 31.2 µg and 14.3 µg and 10.6 µg and 34.8 µg
Amount of BT070 (breakdown product of BT051) excreted in feces ([1]; after BT051 10 mg/kg oral, 24-48 h, individual animals A-D): 5.7 µg and 19.1 µg and 30.8 µg and 3.7 µg
AUCinf [2, 3]: 17616.8 ng/mL * h and 19158.4* ng/mL * h and 7432.0 ng/mL * h
AUClast [2, 3]: 17560.9 ng·h/mL and 11798.3 ng·h/mL and 7249.5 ng·h/mL
plasma concentration of BT070 (breakdown product of BT051) ([2]; after BT051 10 mg/kg oral, rat, 0.5 h): 3.3 ng/mL and NQ (Not quantifiable. No peak or below limit of quantification (LOQ = 2.5 ng/mL)) (4×)
plasma concentration of BT070 (breakdown product of BT051) ([2]; after BT051 10 mg/kg oral, rat, 1 h): NQ (Not quantifiable. No peak or below limit of quantification (LOQ = 2.5 ng/mL))
plasma concentration of BT070 (breakdown product of BT051) ([2]; after BT051 10 mg/kg oral, rat, 2 h): NQ (Not quantifiable. No peak or below limit of quantification (LOQ = 2.5 ng/mL))
plasma concentration of BT070 (breakdown product of BT051) ([2]; after BT051 10 mg/kg oral, rat, 4 h): NQ (Not quantifiable. No peak or below limit of quantification (LOQ = 2.5 ng/mL))
plasma concentration of BT070 (breakdown product of BT051) ([2]; after BT051 10 mg/kg oral, rat, 6 h): NQ (Not quantifiable. No peak or below limit of quantification (LOQ = 2.5 ng/mL))
plasma concentration of BT070 (breakdown product of BT051) ([2]; after BT051 10 mg/kg oral, rat, 8 h): NQ (Not quantifiable. No peak or below limit of quantification (LOQ = 2.5 ng/mL))
plasma concentration of BT070 (breakdown product of BT051) ([2]; after BT051 10 mg/kg oral, rat, 24 h): NQ (Not quantifiable. No peak or below limit of quantification (LOQ = 2.5 ng/mL))
detection in the plasma from 15 minutes to 24 hours ([2]; compound dosed orally in rats at 10 mg/kg): present in the plasma in all subject rats
inhibition of neutrophil migration, dose-response (neutrophil migration; FIG. 1): dose-responsive inhibition
inhibition of neutrophil migration (neutrophil migration; dose of 100 nM): exhibit inhibition of neutrophil migration
